Patent publication US6337417B1, “N-phenyltetrahydrophthalamic acid derivatives, methods of producing same, and herbicides containing same as effective components” (Central Glass Co., Ltd., priority 1994, dated 2002)

Key:
Type in all cases: in vivo
Parameters in all cases: key: 5: completely killed; 4: seriously injured; 3: considerably injured; 2: somewhat injured; 1: slightly injured; 0: not injured (normally grown)
Settings in all cases: 4 weeks after treatment
[1] = tested on: paddy rice; assay: Experiment 1 flooded soil treatment: injury to paddy rice
Source text: (§1) Paddy soil (clay loam) was put into a pot so as to have a surface area of 1/15500 ares. Uniformly mixed seeds of several kinds of weeds, viz., nobie (barnyardgrass, Echinochloa spp.), broad-leaved weeds, hotarui (bulrush, Scirpus juncoides) and tamagayatsuri (small-flowered umbrellaplant, Cyperus difformis), were sown in the surface layer of the soil in each pot, and then paddy rice seedlings at the two- or three-leaved stage were transplanted into each pot to a depth of 2 cm, and water was fed into each pot so as to provide a 3 cm deep water layer on the soil surface. After 3 days, in other words at the initial stage of germination of nobie (barnyardgrass, Echinochloa spp.), a predetermined amount of a selected compound obtained in a manner analogous to Example 8 in the form of diluted aqueous solution was dropped into the water layer in each pot. After that, the pots were kept in a glass chamber to allow the paddy rice and the weeds to grow, and after the lapse of 4 weeks from the treatment with the selected compounds, the herbicidal effects and the degree of injury to the paddy rice were evaluated. In the table, the herbicidal effects and the degree of injury to the paddy rice are indicated by numerical values, which have the following meaning.
(§2) 0: not injured (normally grown)

[2] = tested on: nobie (barnyardgrass, Echinochloa spp.); assay: Experiment 1 flooded soil treatment: nobie
Source text: as §1, §2

[3] = tested on: broad-leaved weeds; assay: Experiment 1 flooded soil treatment: broad-leaved weeds
Source text: as §1, §2

[4] = tested on: hotarui (bulrush, Scirpus juncoides); assay: Experiment 1 flooded soil treatment: hotarui
Source text: as §1, §2

[5] = tested on: tamagayatsuri (small-flowered umbrellaplant, Cyperus difformis); assay: Experiment 1 flooded soil treatment: tamagayatsuri
Source text: as §1, §2

[6] = tested on: rice; assay: Experiment 2 foliage treatment: rice
Procedure: (§3) Upon seedling stage (two- or three-leaved stage) of rice, cockspur (Panicum crus-galli), garden radish, aobiyu (slender amaranth, Amaranthus viridis) and mehishiba (henry crabgrass, Digitaria cliaris) which were grown on a cultivated soil put in pots of 1/15500 ares, a selected compound obtained in a manner analogous to Example 8, in suspended wettable powder, was sprayed to each plant. After that, the pots were kept in a glass chamber to allow each plant to grow, and after the lapse of 4 weeks from the treatment with the selected compounds the herbicidal effects were evaluated. The evaluation of the herbicidal effects was similarly conducted as to that of Experiment 1.

[7] = tested on: cockspur (Panicum crus-galli); assay: Experiment 2 foliage treatment: cockspur
Procedure: as §3

[8] = tested on: garden radish; assay: Experiment 2 foliage treatment: garden radish
Procedure: as §3

[9] = tested on: aobiyu (slender amaranth, Amaranthus viridis); assay: Experiment 2 foliage treatment: aobiyu
Procedure: as §3

[10] = tested on: mehishiba (henry crabgrass, Digitaria cliaris); assay: Experiment 2 foliage treatment: mehishiba
Procedure: as §3

[11] = tested on: ichibi (velvetleaf, Abutilon theophrasti); assay: Experiment 3 foliage treatment: ichibi
Procedure: as §3, with “ichibi (velvetleaf, Abutilon theophrasti), onamomi (heartleaf cocklebur, Xanthium strumarium) (4L stage), noasagao (blue morningglory, Ipomoea indica)” for “rice, cockspur (Panicum crus-galli), garden radish, aobiyu (slender amaranth, Amaranthus viridis)”, “ooinutade (pale smartweed, Persicaria lapathifolia)” for “mehishiba (henry crabgrass, Digitaria cliaris)”, “1/8850” for “1/15500”

[12] = tested on: onamomi (heartleaf cocklebur, Xanthium strumarium); assay: Experiment 3 foliage treatment: onamomi
Procedure: as §3, with “ichibi (velvetleaf, Abutilon theophrasti), onamomi (heartleaf cocklebur, Xanthium strumarium) (4L stage), noasagao (blue morningglory, Ipomoea indica)” for “rice, cockspur (Panicum crus-galli), garden radish, aobiyu (slender amaranth, Amaranthus viridis)”, “ooinutade (pale smartweed, Persicaria lapathifolia)” for “mehishiba (henry crabgrass, Digitaria cliaris)”, “1/8850” for “1/15500”

[13] = tested on: noasagao (blue morningglory, Ipomoea indica); assay: Experiment 3 foliage treatment: noasagao
Procedure: as §3, with “ichibi (velvetleaf, Abutilon theophrasti), onamomi (heartleaf cocklebur, Xanthium strumarium) (4L stage), noasagao (blue morningglory, Ipomoea indica)” for “rice, cockspur (Panicum crus-galli), garden radish, aobiyu (slender amaranth, Amaranthus viridis)”, “ooinutade (pale smartweed, Persicaria lapathifolia)” for “mehishiba (henry crabgrass, Digitaria cliaris)”, “1/8850” for “1/15500”

[14] = tested on: ooinutade (pale smartweed, Persicaria lapathifolia); assay: Experiment 3 foliage treatment: ooinutade
Procedure: as §3, with “ichibi (velvetleaf, Abutilon theophrasti), onamomi (heartleaf cocklebur, Xanthium strumarium) (4L stage), noasagao (blue morningglory, Ipomoea indica)” for “rice, cockspur (Panicum crus-galli), garden radish, aobiyu (slender amaranth, Amaranthus viridis)”, “ooinutade (pale smartweed, Persicaria lapathifolia)” for “mehishiba (henry crabgrass, Digitaria cliaris)”, “1/8850” for “1/15500”

CCCCCOC(=O)C1=C(C(=O)N(C(=O)CC)c2cc(SCC(=O)OC)c(Cl)cc2F)CCCC1 [compound 17]
4: Herbicidal Effect hotarui ([4]; 12.5 g/10a)
0.5: Injury of Paddy ([1]; 25 g/10a)
5: Herbicidal Effect nobie ([2]; 12.5 g/10a) | Herbicidal Effect nobie ([2]; 25 g/10a) | Herbicidal Effect broad-leaved weed ([3]; 12.5 g/10a) | Herbicidal Effect broad-leaved weed ([3]; 25 g/10a) | Herbicidal Effect hotarui ([4]; 25 g/10a) | Herbicidal Effect tamagayatsuri ([5]; 12.5 g/10a) | Herbicidal Effect tamagayatsuri ([5]; 25 g/10a) | Herbicidal Effect garden radish ([8]; 40 g/10a) | Herbicidal Effect garden radish ([8]; 80 g/10a) | Herbicidal Effect aobiyu ([9]; 40 g/10a) | Herbicidal Effect aobiyu ([9]; 80 g/10a)
2: Herbicidal Effect cockspur ([7]; 40 g/10a) | Herbicidal Effect cockspur ([7]; 80 g/10a)
0: Injury of Paddy ([1]; 12.5 g/10a)
1: Herbicidal Effect rice ([6]; 40 g/10a) | Herbicidal Effect rice ([6]; 80 g/10a) | Herbicidal Effect mehishiba ([10]; 40 g/10a) | Herbicidal Effect mehishiba ([10]; 80 g/10a)

CCOC(=O)C1=C(C(=O)N(C(=O)CC)c2cc(SCC(=O)OC)c(Cl)cc2F)CCCC1 [compound 33]
1: Herbicidal Effect rice ([6]; 40 g/10a) | Herbicidal Effect rice ([6]; 80 g/10a) | Herbicidal Effect cockspur ([7]; 40 g/10a) | Herbicidal Effect cockspur ([7]; 80 g/10a) | Herbicidal Effect mehishiba ([10]; 40 g/10a) | Herbicidal Effect mehishiba ([10]; 80 g/10a)
4: Herbicidal Effect noasagao ([13]; 4 g/10a)
5: Herbicidal Effect garden radish ([8]; 40 g/10a) | Herbicidal Effect garden radish ([8]; 80 g/10a) | Herbicidal Effect aobiyu ([9]; 40 g/10a) | Herbicidal Effect aobiyu ([9]; 80 g/10a) | Herbicidal Effect ichibi ([11]; 4 g/10a) | Herbicidal Effect ichibi ([11]; 8 g/10a) | Herbicidal Effect onamomi ([12]; 4 g/10a) | Herbicidal Effect onamomi ([12]; 8 g/10a) | Herbicidal Effect noasagao ([13]; 8 g/10a) | Herbicidal Effect ooinutade ([14]; 4 g/10a) | Herbicidal Effect ooinutade ([14]; 8 g/10a)

CCC(=O)N(C(=O)C1=C(C(=O)OC)CCCC1)c1cc(SCC(=O)OC)c(Cl)cc1F [compound 16]
5: Herbicidal Effect nobie ([2]; 12.5 g/10a) | Herbicidal Effect nobie ([2]; 25 g/10a) | Herbicidal Effect broad-leaved weed ([3]; 12.5 g/10a) | Herbicidal Effect broad-leaved weed ([3]; 25 g/10a) | Herbicidal Effect hotarui ([4]; 12.5 g/10a) | Herbicidal Effect hotarui ([4]; 25 g/10a) | Herbicidal Effect tamagayatsuri ([5]; 12.5 g/10a) | Herbicidal Effect tamagayatsuri ([5]; 25 g/10a) | Herbicidal Effect garden radish ([8]; 40 g/10a) | Herbicidal Effect garden radish ([8]; 80 g/10a) | Herbicidal Effect aobiyu ([9]; 40 g/10a) | Herbicidal Effect aobiyu ([9]; 80 g/10a)
1: Herbicidal Effect rice ([6]; 40 g/10a) | Herbicidal Effect rice ([6]; 80 g/10a) | Herbicidal Effect cockspur ([7]; 40 g/10a) | Herbicidal Effect cockspur ([7]; 80 g/10a) | Herbicidal Effect mehishiba ([10]; 40 g/10a) | Herbicidal Effect mehishiba ([10]; 80 g/10a)
0.5: Injury of Paddy ([1]; 12.5 g/10a) | Injury of Paddy ([1]; 25 g/10a)

CCOC(=O)C1=C(C(=O)N(C(C)=O)c2cc(SCC(=O)OC)c(Cl)cc2F)CCCC1 [Compound No. 12]
0.5: Injury of Paddy ([1]; 12.5 g/10a) | Injury of Paddy ([1]; 25 g/10a)
1: Herbicidal Effect rice ([6]; 40 g/10a) | Herbicidal Effect rice ([6]; 80 g/10a) | Herbicidal Effect cockspur ([7]; 40 g/10a) | Herbicidal Effect cockspur ([7]; 80 g/10a) | Herbicidal Effect mehishiba ([10]; 40 g/10a) | Herbicidal Effect mehishiba ([10]; 80 g/10a)
5: Herbicidal Effect nobie ([2]; 12.5 g/10a) | Herbicidal Effect nobie ([2]; 25 g/10a) | Herbicidal Effect broad-leaved weed ([3]; 12.5 g/10a) | Herbicidal Effect broad-leaved weed ([3]; 25 g/10a) | Herbicidal Effect hotarui ([4]; 25 g/10a) | Herbicidal Effect tamagayatsuri ([5]; 12.5 g/10a) | Herbicidal Effect tamagayatsuri ([5]; 25 g/10a) | Herbicidal Effect garden radish ([8]; 40 g/10a) | Herbicidal Effect garden radish ([8]; 80 g/10a) | Herbicidal Effect aobiyu ([9]; 40 g/10a) | Herbicidal Effect aobiyu ([9]; 80 g/10a)
4: Herbicidal Effect hotarui ([4]; 12.5 g/10a)

CCCCOC(=O)C1=C(C(=O)N(C(=O)CC)c2cc(SCC(=O)OC)c(Cl)cc2F)CCCC1 [compound 35]
5: Herbicidal Effect garden radish ([8]; 40 g/10a) | Herbicidal Effect garden radish ([8]; 80 g/10a) | Herbicidal Effect aobiyu ([9]; 40 g/10a) | Herbicidal Effect aobiyu ([9]; 80 g/10a) | Herbicidal Effect ichibi ([11]; 4 g/10a) | Herbicidal Effect ichibi ([11]; 8 g/10a) | Herbicidal Effect noasagao ([13]; 8 g/10a) | Herbicidal Effect ooinutade ([14]; 4 g/10a) | Herbicidal Effect ooinutade ([14]; 8 g/10a)
1: Herbicidal Effect rice ([6]; 40 g/10a) | Herbicidal Effect rice ([6]; 80 g/10a) | Herbicidal Effect cockspur ([7]; 40 g/10a) | Herbicidal Effect mehishiba ([10]; 40 g/10a) | Herbicidal Effect mehishiba ([10]; 80 g/10a)
4: Herbicidal Effect onamomi ([12]; 4 g/10a) | Herbicidal Effect onamomi ([12]; 8 g/10a) | Herbicidal Effect noasagao ([13]; 4 g/10a)
2: Herbicidal Effect cockspur ([7]; 80 g/10a)

C#CCOC(=O)C1=C(C(=O)N(C(C)=O)c2cc(SCC(=O)OC)c(Cl)cc2F)CCCC1 [compound 15]
0: Injury of Paddy ([1]; 12.5 g/10a)
5: Herbicidal Effect nobie ([2]; 12.5 g/10a) | Herbicidal Effect nobie ([2]; 25 g/10a) | Herbicidal Effect broad-leaved weed ([3]; 12.5 g/10a) | Herbicidal Effect broad-leaved weed ([3]; 25 g/10a) | Herbicidal Effect tamagayatsuri ([5]; 25 g/10a) | Herbicidal Effect garden radish ([8]; 40 g/10a) | Herbicidal Effect garden radish ([8]; 80 g/10a) | Herbicidal Effect aobiyu ([9]; 80 g/10a)
0.5: Injury of Paddy ([1]; 25 g/10a)
1: Herbicidal Effect rice ([6]; 40 g/10a) | Herbicidal Effect rice ([6]; 80 g/10a) | Herbicidal Effect cockspur ([7]; 40 g/10a) | Herbicidal Effect cockspur ([7]; 80 g/10a) | Herbicidal Effect mehishiba ([10]; 40 g/10a) | Herbicidal Effect mehishiba ([10]; 80 g/10a)
4: Herbicidal Effect hotarui ([4]; 12.5 g/10a) | Herbicidal Effect hotarui ([4]; 25 g/10a) | Herbicidal Effect tamagayatsuri ([5]; 12.5 g/10a)
4.5: Herbicidal Effect aobiyu ([9]; 40 g/10a)

COC(=O)CSc1cc(N(C(=O)C2=C(C(=O)OC)CCCC2)C(=O)c2cccc(F)c2)c(F)cc1Cl [compound 19]
4: Herbicidal Effect garden radish ([8]; 40 g/10a)
1: Herbicidal Effect rice ([6]; 40 g/10a) | Herbicidal Effect rice ([6]; 80 g/10a) | Herbicidal Effect cockspur ([7]; 40 g/10a) | Herbicidal Effect cockspur ([7]; 80 g/10a) | Herbicidal Effect mehishiba ([10]; 40 g/10a) | Herbicidal Effect mehishiba ([10]; 80 g/10a)
0: Injury of Paddy ([1]; 12.5 g/10a)
0.5: Injury of Paddy ([1]; 25 g/10a)
5: Herbicidal Effect nobie ([2]; 12.5 g/10a) | Herbicidal Effect nobie ([2]; 25 g/10a) | Herbicidal Effect broad-leaved weed ([3]; 12.5 g/10a) | Herbicidal Effect broad-leaved weed ([3]; 25 g/10a) | Herbicidal Effect hotarui ([4]; 12.5 g/10a) | Herbicidal Effect hotarui ([4]; 25 g/10a) | Herbicidal Effect tamagayatsuri ([5]; 12.5 g/10a) | Herbicidal Effect tamagayatsuri ([5]; 25 g/10a) | Herbicidal Effect garden radish ([8]; 80 g/10a) | Herbicidal Effect aobiyu ([9]; 40 g/10a) | Herbicidal Effect aobiyu ([9]; 80 g/10a)
